The subject of data set [1] is Aorta. The data set can be described thus: Ex vivo antiangiogenic activity in Wistar rat aortic ring assessed as inhibition of angiogenesis at 100 uM after 7 days by phase-contrast microscopy. Format: functional, tissue-based.
Data set [2] has as its system Aorta. The data set can be described thus: Ex vivo antiangiogenic activity in Wistar rat aortic ring assessed as decrease of microvessel length at 100 uM after 7 days by phase-contrast microscopy. It counts as functional, tissue-based.
In data set [3] the test system is Aorta. Put plainly: Ex vivo antiangiogenic activity in Wistar rat aortic ring assessed as inhibition of angiogenesis at 50 uM after 7 days by phase-contrast microscopy. It counts as functional.
The next data set concerns HCT-116. Put plainly: Cytotoxicity against human HCT116 cells. Format: functional.
Data set [4] relates to Aorta. The data set can be described thus: Ex vivo antiangiogenic activity in Wistar rat aortic ring assessed as inhibition of angiogenesis after 7 days by phase-contrast microscopy. It counts as functional, tissue-based.
Data set [5] relates to HUVEC. The data set can be described thus: Inhibition of VEGF-induced HUVEC migration at 100 uM after 6 hrs by gelatin-coated Boyden chamber assay. Particulars: Homo sapiens. Format: functional, cell-based.
Data set [6] has as its system HUVEC. The data set can be described thus: Antiangiogenic activity in HUVEC assessed as reduction of tube formation at 100 uM after 12 hrs by phase-contrast microscopy. It counts as functional, cell-based. Particulars: Homo sapiens.
Data set [7] can be described thus: Cytotoxicity against HDF. To be noted: human.
Data set [8] has as its system HUVEC. Put plainly: Antiproliferative activity against HUVEC at 5 to 100 uM after 72 hrs by WST-1 assay. Format: functional, cell-based. Particulars: Homo sapiens. For orientation: Formazan colour is commonly taken as a measure of viable cells.

Molecules are shown by their SMILES. Activity calls are given as the source filed them. No cut-off for these calls is given here.

Consider `CC1=C(Br)C(=O)c2ccccc2C1=O`, for which the outcome in the data set with Aorta [1] was Active.
For `CCCCC1=C(C)C(=O)c2ccccc2C1=O`, in the data set on Aorta [1], the outcome was inactive. In the data set with Aorta [2], the result was Active.
Taken in the same sequence, the figures for `CCCCCCCC1=C(C)C(=O)c2ccccc2C1=O` were “inactive” and “inactive”.
On to `CCCCCCCCCNC1=C(C)C(=O)c2ccccc2C1=O`, for which the result in the data set with Aorta [1] and in the data set on Aorta [2] was inactive.
Take `CCC1=C(C)C(=O)c2ccccc2C1=O`: in the data set with Aorta [1], the result was Active.
Turning to `CCCCCCCCCCC1=C(C)C(=O)c2ccccc2C1=O`, the result in the data set on Aorta [1] and in the data set on Aorta [2] was inactive.
Consider `CCCNC1=C(C)C(=O)c2ccccc2C1=O`, for which the Activity in the data set on Aorta [3] is >50 µM; with HCT-116, >100 µM; with Aorta [4], “Dose-dependent effect”; in data set [7], > 100 µM. The result in the data set with Aorta [1], in the data set on HUVEC [6], in the data set with Aorta [2] and in the data set with HUVEC [8] was Active. The inhibition result in the data set with HUVEC [5] was “inactive”.
In the case of `CCCCCCNC1=C(C)C(=O)c2ccccc2C1=O`, the result with Aorta [1] and in the data set with Aorta [2] was inactive.
For `CNC1=C(C)C(=O)c2ccccc2C1=O`, in the data set with Aorta [1], the result was Active.
Regarding `CC1=C(C2=C(C)C(=O)c3ccccc3C2=O)C(=O)c2ccccc2C1=O`, the outcome in the data set on Aorta [1] was inactive.

The record behind these values is ChEMBL document CHEMBL1221319, “Synthesis and biological evaluation of vitamin K derivatives as angiogenesis inhibitor” (Bioorg Med Chem, 2010).
